For test [1], the target named is T1, human Bradykinin B1 receptor (Homo sapiens, UniProt P46663).
T1 construct: host or cells: CHO-K1
T1 sequence (P46663 1-353): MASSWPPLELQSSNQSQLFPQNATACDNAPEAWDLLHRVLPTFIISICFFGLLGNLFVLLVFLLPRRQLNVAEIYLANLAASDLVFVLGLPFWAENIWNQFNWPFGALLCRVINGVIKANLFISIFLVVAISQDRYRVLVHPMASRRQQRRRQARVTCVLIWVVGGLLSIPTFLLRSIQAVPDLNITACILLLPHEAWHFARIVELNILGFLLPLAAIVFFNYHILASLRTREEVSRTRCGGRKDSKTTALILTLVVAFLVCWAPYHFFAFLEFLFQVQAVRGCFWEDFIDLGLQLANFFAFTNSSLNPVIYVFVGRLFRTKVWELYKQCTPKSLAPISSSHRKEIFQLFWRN
Description: Calcium flux Assay (FLIPR) with recombinant CHO-K1 cells expressing human Bradykinin B1 receptor, in presence (hB1 IC50) or absence (hB1 free IC50) of 0.1% BSA. Type of test: cell-based. In general terms: Calcium assays in cells follow changes in intracellular calcium, usually with a dye or a luminescent sensor.

The target in test [2] is T2, native human Bradykinin B1 receptor (Homo sapiens, UniProt P46663).
T2 construct: which express native human Bradykinin B1 receptor after induction with human IL-10; Coriell Institute; host or cells: IMR-90 human foetal lung fibroblasts, cytokine-induced
T2 sequence (P46663 1-353): T1 sequence (P46663 1-353)
Description: Calcium flux Assay (FLIPR) with human fibroblasts expressing Bradykinin B1 receptor (hB1 IMR-90). It is filed as cell-based. The conditions noted are these: IMR-90 human fibroblasts expressing native Bradykinin B1 receptor. How it is done:
Calcium flux Assay (FLIPR) with human fibroblasts expressing Bradykinin B1 receptor (hB1 IMR-90)
The Calcium flux Assay was carried out utilising IMR-90 human foetal lung fibroblasts (American Type Culture Collection, Rockville, Md.; and Coriell Institute, Camden, N.J.), which express native human Bradykinin B1 receptor after induction with human […].
The fibroblasts were cultured in complete growth media comprised of Dulbecco's modified Eagle's medium (DMEM; Sigma) containing 10% foetal bovine serum, 4 mM L-glutamine, and 1% nonessential amino acids. The cells were maintained in a humidified atmosphere with 5% CO2 at 37° C. and were sub-cultured at a ratio of 1:3, every other day.
For the assay, IMR-90 fibroblasts were harvested using TrypLE Express (GIBCO/Invitrogen) and seeded into 384-well plates (Corning Cellbinding Surface, Cat. 3683) at a density of 15000 cells/well. The following day, cells were treated with 0.35 ng/mL human […] in 10% FBS/MEM for 3h to up-regulate Bradykinin B1 receptor. Induced cells were loaded with fluorescent calcium indicator by incubation with 2.5 μM Fluo-4/AM (Invitrogen) at 37° C., 5% CO2 for 2 h in the presence of 2.5 mM probenecid in 1% FBS/MEM. Extracellular dye was removed by washing with assay buffer (2.5 mM probenecid and 0.1% BSA in 20 mM HEPES/HBSS without bicarbonate or phenol red, pH 7.5). Compound examples were assayed at 8 concentrations in triplicate. After addition of compound examples to the cell plate and incubation for 30 min at 28° C., the addition of Bradykinin B1 agonist Lys-(Des-Arg)-Bradykinin (Bachem, Brackley) at a final concentration of EC90 was carried out on the FLIPR instrument while continuously monitoring Ca^2+-dependent fluorescence at 538 nm. A peptide antagonist Lys-(Des-Arg-Leu)-Bradykinin (Bachem, Brackley) at 20 µM was used to determine the full inhibition as control. IC50 values were determined by the same way described for the FLIPR assay with recombinant cells.

[3] abbreviates: in absence of 0.1% BSA, read-out: hB1 free IC50.
Setting [4] is: in presence of 0.1% BSA, read-out: hB1 IC50.

Molecules are shown by their SMILES. Like-named read-outs stand apart in the source and are kept apart here.

Consider `O=C(Nc1ccc(-c2ccc(C(F)(F)F)nc2)c(-c2nnn[nH]2)c1)C1(c2ccc(Cl)cc2F)CC1` [Example 192, 1-(4-chloro-2-fluorophenyl)-N-{3-(1H-tetrazol-5-yl)-4-[6-(trifluoromethyl)pyridin-3-yl]phenyl} cyclopropane-carboxamide], for which the IC50 (as a rule, the midpoint of a concentration-inhibition curve) turned out to be 33.9 nM in test [1] (setting [3]) and 29.1 nM in test [2].

Consider `O=C(Nc1ccc(-c2cnc(C(F)(F)F)nc2)c(-c2nnn[nH]2)c1)C1(c2ccc(C(F)(F)F)cc2F)CC1` [Example 261, 1-[2-fluoro-4-(trifluoromethyl)phenyl]-N-{3-(1H-tetrazol-5-yl)-4-[2-(trifluoromethyl)pyrimidin-5-yl]phenyl}cyclopro-panecarboxa-mide], for which the IC50 in test [1] (setting [3]) turned out to be 212 nM; in test [2], 204 nM.

Turning to `CCOc1ccc(-c2ccc(NC(=O)C3(c4ccc(C)cc4)CC3)cc2-c2nnn[nH]2)cn1` [Example 99, N-[4-(6-ethoxypyridin-3-yl)-3-(1H-tetrazol-5-yl)phenyl]-1-(4-methylphenyl) cyclopropane-carboxamide], the IC50 in test [1] (setting [4]) is 24 nM; in test [2], 11.8 nM.

On to `CCOc1ccc(-c2ncc(NC(=O)C3(c4cccc(Cl)c4)CC3)cc2-c2nnn[nH]2)cn1` [Example 218, 1-(3-chlorophenyl)-N-[6′-ethoxy-3-(1H-tetrazol-5-yl)-2,3′-bipyridin-5-yl]cyclopropane carboxamide], for which the 50% inhibitory concentration (IC50) in test [1] (setting [3]) came out at 264 nM; in test [1] (setting [4]), 75 nM; in test [2] it was 31.6 nM.

Turning to `Cc1cncc(-c2ccc(NC(=O)C3(c4cccc(Cl)c4)CC3)cc2-c2nnn[nH]2)c1` [Example 326, 1-(3-chlorophenyl)-N-[4-(5-methylpyridin-3-yl)-3-(1H-tetrazol-5-yl)phenyl]cyclopro-panecarboxa-mide], the results for the half-maximal inhibitory concentration (IC50) in test [1] (setting [3]), in test [1] (setting [4]) and in test [2] were 20 nM, 22.3 nM and 45.2 nM, respectively.

`O=C(Nc1ccc(-c2ccc(C(F)(F)F)nc2)c(-c2nnn[nH]2)c1)C1(c2cccc(C(F)(F)F)c2)CC1` [Example 144, N-{3-(1H-tetrazol-5-yl)-4-[6-(trifluoromethyl)pyridin-3-yl]phenyl}-1-[3-(trifluoromethyl)phenyl] cyclopropane-carboxamide]: the IC50 in test [1] (setting [3]) is 300 nM; in test [2], 289 nM.

Consider `O=C(Nc1ccc(-c2ccc(C(F)(F)F)nc2)c(-c2nnn[nH]2)c1)C1(c2cccc(Cl)c2F)CC1` [Example 138, 1-(3-chloro-2-fluorophenyl)-N-{3-(1H-tetrazol-5-yl)-4-[6-(trifluoromethyl)pyridin-3-yl]phenyl} cyclopropane-carboxamide], for which the figures for the IC50 in test [1] (setting [3]) and in test [2] were 51.3 nM and 102 nM, respectively.

In the case of `COCc1ccc(-c2ccc(NC(=O)C3(c4cccc(Cl)c4)CC3)cc2-c2nnn[nH]2)cn1` [Example 125, 1-(3-chlorophenyl)-N-{4-[6-(methoxymethyl)pyridin-3-yl]-3-(1H-tetrazol-5-yl)phenyl} cyclopropane-carboxamide], the values for the IC50 in test [1] (setting [3]), in test [1] (setting [4]) and in test [2] were 23.3 nM, 13.8 nM and 26 nM, respectively.

For the compound `O=C(Nc1ccc(-c2ccc(C(F)(F)F)nc2)c(-c2nnn[nH]2)c1)C1(c2ccc(Cl)cc2)CC1` [Example 203, 1-(4-chlorophenyl)-N-{3-(1H-tetrazol-5-yl)-4-[6-(trifluoromethyl)pyridin-3-yl]phenyl} cyclopropane-carboxamide], the IC50 in test [1] (setting [3]) came out at 92.2 nM; in test [2], 36.7 nM.

As to `CCOc1ncc(-c2ccc(NC(=O)C3(c4cccc(Cl)c4)CC3)cc2-c2nnn[nH]2)cc1F` [Example 163, 1-(3-chlorophenyl)-N-[4-(6-ethoxy-5-fluoropyridin-3-yl)-3-(1H-tetrazol-5-yl)phenyl] cyclopropane-carboxamide], the results for the IC50 in test [1] (setting [3]), in test [1] (setting [4]) and in test [2] were 14.2 nM, 28.1 nM and 28.9 nM, respectively.

In the case of `CCc1ccc(-c2ccc(NC(=O)C3(c4cccc(Cl)c4)CC3)cc2-c2nnn[nH]2)cn1` [Example 338, 1-(3-chlorophenyl)-N-[4-(6-ethylpyridin-3-yl)-3-(1H-tetrazol-5-yl)phenyl]cyclopro-panecarboxa-mide], the figures for the IC50 in test [1] (setting [3]), in test [1] (setting [4]) and in test [2] were 8.98 nM, 20.4 nM and 6.03 nM, respectively.

In the case of `CCOc1ccc(-c2ccc(NC(=O)C3(c4ccc(Cl)c(F)c4)CC3)cc2-c2nnn[nH]2)cn1` [Example 70, 1-(4-chloro-3-fluorophenyl)-N-[4-(6-ethoxypyridin-3-yl)-3-(1H-tetrazol-5-yl)phenyl] cyclopropane-carboxamide], the results for the half-inhibitory concentration (IC50) in test [1] (setting [3]), in test [1] (setting [4]) and in test [2] were 9.27 nM, 12.5 nM and 6 nM, respectively.

As to `CCOc1ccc(-c2ccc(NC(=O)C3(c4cccc(F)c4F)CC3)cc2-c2nnn[nH]2)cn1` [Example 79, 1-(2,3-difluorophenyl)-N-[4-(6-ethoxypyridin-3-yl)-3-(1H-tetrazol-5-yl)phenyl] cyclopropane-carboxamide], the IC50 in test [1] (setting [4]) was determined as 25.1 nM; in test [2] it was 24.7 nM.

As to `CCOc1ccc(-c2ccc(NC(=O)C3(c4ccccc4F)CC3)cc2-c2nnn[nH]2)cn1` [Example 92, N-[4-(6-ethoxypyridin-3-yl)-3-(1H-tetrazol-5-yl)phenyl]-1-(2-fluorophenyl) cyclopropane-carboxamide], the IC50 amounted to 37.7 nM in test [1] (setting [3]), 39.8 nM in test [1] (setting [4]) and 25.3 nM in test [2].

As for `O=C(Nc1cc(F)c(-c2ccnc(C(F)(F)F)c2)c(-c2nnn[nH]2)c1)C1(c2ccc(F)c(F)c2)CC1` [Example 244, 1-(3,4-difluorophenyl)-N-{3-fluoro-5-(1H-tetrazol-5-yl)-4-[2-(trifluoromethyl)pyridin-4-yl]phenyl} cyclopropane-carboxamide], the IC50 amounted to 176 nM in test [1] (setting [3]) and 512 nM in test [2].

In the case of `CCOc1ccc(-c2ccc(NC(=O)C3(c4ccc(C(F)(F)F)cc4)CC3)cc2-c2nnn[nH]2)cc1OC` [Example 121], the IC50 in test [1] (setting [4]) came to 28.2 nM; in test [2] it was 19.4 nM.

Turning to `COc1cc(-c2ccc(NC(=O)C3(c4cccc(Cl)c4)CC3)cc2-c2nnn[nH]2)ccc1C(F)(F)F` [Example 233, 1-(3-chlorophenyl)-N-[3′-methoxy-2-(1H-tetrazol-5-yl)-4′-(trifluoromethyl)biphenyl-4-yl]cyclopropane carboxamide], the figures for the IC50 in test [1] (setting [3]), in test [1] (setting [4]) and in test [2] were 18.9 nM, 68.6 nM and 35.2 nM, respectively.

`O=C(Nc1cc(F)c(-c2ccc(C(F)(F)F)nc2)c(-c2nnn[nH]2)c1)C1(c2cccc(Cl)c2)CC1` [Example 241, 1-(3-chlorophenyl)-N-{3-fluoro-5-(1H-tetrazol-5-yl)-4-[6-(trifluoromethyl)pyridin-3-yl]phenyl} cyclopropane-carboxamide]: the IC50 in test [1] (setting [3]) came to 54.2 nM; in test [2], 127 nM.

As for `CCOc1ccc(-c2ccc(NC(=O)C3(c4cccc(F)c4)CC3)cc2-c2nnn[nH]2)cn1` [Example 80, N-[4-(6-ethoxypyridin-3-yl)-3-(1H-tetrazol-5-yl)phenyl]-1-(3-fluorophenyl) cyclopropane-carboxamide], the IC50 is 29.6 nM in test [1] (setting [3]), 25.6 nM in test [1] (setting [4]) and 27.2 nM in test [2].

For `CCOc1ccc(-c2ccc(NC(=O)C3(c4cccc(C(C)(C)C)c4)CC3)cc2-c2nnn[nH]2)cn1` [Example 97, 1-(3-tert-butylphenyl)-N-[4-(6-ethoxypyridin-3-yl)-3-(1H-tetrazol-5-yl)phenyl] cyclopropane-carboxamide], the IC50 in test [1] (setting [4]) is 138 nM; in test [2] it was 101 nM.

Turning to `CCOc1ccc(-c2ccc(NC(=O)C3(c4ccc(F)cc4)CC3)cc2-c2nnn[nH]2)cn1` [Example 81, N-[4-(6-ethoxypyridin-3-yl)-3-(1H-tetrazol-5-yl)phenyl]-1-(4-fluorophenyl) cyclopropane-carboxamide], the figures for the IC50 in test [1] (setting [3]), in test [1] (setting [4]) and in test [2] were 29.1 nM, 27.5 nM and 21.2 nM, respectively.

Values taken from patent publication US20210317092A1 (BAYER PHARMA AKTIENGESELLSCHAFT, priority 2016, published 2021).
